According to patent US20170008845A1, “PYRIDINYL CYCLOHEXANECARBOXAMIDE COOLING COMPOUNDS” (Givaudan, S.A., priority 2005, published 2017):
Like-named read-outs stand apart in the source and are kept apart here.

How the values were obtained:
mouth and lips = settings: 50 mL of 1% solution in alcohol per 1 liter mouthwash (with peppermint oil); 30 mL swished, gargled, spit out
Experimental: All the ingredients are mixed. 30 mL of obtained solution is put in the mouth, swished around, gargled and spit out.

[1] = tested on: panelists (cooling sensation in the mouth); test: Panel tasting of aqueous solutions: cooling intensity matched to menthol 2 ppm, and longevity; assay type: in vivo; settings: for Longevity (time until no cooling could be sensed in the mouth): aqueous solution at the chosen concentration of Table 2; for Concentration with cooling intensity similar or slightly higher than menthol at 2 ppm: aqueous solution, tasted by a small panel
Excerpt: The same panel is asked to taste these solutions at the chosen concentrations and to record the cooling intensity at regular time intervals until no cooling could be sensed in the mouth.

[2] = tested on: panelists (cooling sensation in the mouth); settings: cooling intensity similar to or slightly higher than menthol at 2 ppm
panelist's mouth [3] = settings: 1.5 mg in 355 mL can of clear lemon/lime soda
Experimental: 1.5 mg of the compound of example 2 is dissolved in a 355 mL (12 fl oz.) can of clear lemon/lime soda.

panelist's mouth [4] = settings: 2.500 g of 2% solution in propylene glycol in 97 g opaque toothgel (with peppermint oil); teeth brushed, mouth rinsed
Excerpt: The chemicals are mixed in the toothgel, a piece of toothgel is put on a toothbrush and a panelist's teeth are brushed. The mouth is rinsed with water and the water is spit out.

SMILES	Cooling sensation in mouthwash (mouth and lips)	Longevity (time until no cooling could be sensed in the mouth) [1] [min]	Concentration with cooling intensity similar or slightly higher than menthol at 2 ppm [1] [ppm]	Isointensive concentration [2] [ppm]	Isointensive concentration ([2]; listed as m = 0, 4) [ppm]	After-taste in beverage (panelist's mouth [3])	Cooling sensation in beverage (panelist's mouth [3])	Cooling sensation in toothgel (panelist's mouth [4])	Isointensive concentration ([2]; listed as m = 2, 2 or 6) [ppm]
CC1CCC(C(C)C)C(C(=O)Nc2ccncc2)C1 (centres unmarked) [Example 1, N-(4-pyridinyl) p-menthanecarboxamide]	icy-cool sensation is felt in every area of the mouth as well as lips	50	0.5	0.67	0.5	–	–	–	–
CC(C)[C@@H]1CC[C@@H](C)C[C@H]1C(=O)NCCc1ccccn1 [Example 2, (1R,2S,5R)-2-isopropyl-5-methyl-N-(2-(pyridin-2-yl)ethyl)cyclohexanecarboxamide]	–	60	0.02	0.05	–	No unpleasant after-taste	agreeable delayed cooling sensation in the mouth with no throat burning	intense cooling sensation is felt by the panelist in all areas of the mouth	0.02
CC(C)C(C)(C(=O)NCCc1ccccn1)C(C)C [Example 3, 2-isopropyl-2,3-dimethyl-N-(2-(pyridin-2-yl)ethyl)butanamide]	–	–	0.4	–	–	–	–	–	–
CCNC(=O)C1CC(C)CCC1C(C)C (centres unmarked) [N-ethyl p-menthanecarboxamide (WS-3), N-ethyl p-menthanecarboxamide, reference compound]	–	57	1.5	–	–	–	–	–	–
CC(C)[C@@H]1CC[C@@H](C)C[C@H]1O [l-Menthol, reference compound]	–	35	2.0	–	–	–	–	–	–
